# Measured values: patent US7713994B2 (Wyeth LLC, priority 2005, dated 2010)
# What was measured:
# [1] = biological target: T1, cyclin D1/cdk 4 enzyme (Homo sapiens, UniProt P11802); test: CDK4 ELISA kinase assay (phospho-Rb ser 795 detection); type: biochemical; details: In Vitro Enzyme Assay, cyclin D1/cdk 4, read-out: CDK4 IC50
# T1 construct: made in house; host or cells: Sf9 insect cells, recombinant baculovirus
# Outline: (§1)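 GST-Rb C-terminal fragment coated on plates; partially purified Sf9-expressed cyclin D1/CDK4, cyclin E/CDK2 or cyclin B/CDK1 with 200 μM ATP, pH 7.5 HEPES/MgCl2 buffer, 1 h at 30 °C; screen compound final 10 μg/ml. Phospho-Rb Ser795 detected by antibody ELISA (TMB, A450); % of control, IC50 from background-subtracted inhibition curves.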
# [2] = biological target: T2, cyclin B/CDK1 enzyme (Homo sapiens, UniProt P06493); test: CDK1 ELISA kinase assay (phospho-Rb ser 795 detection); type: biochemical; details: In Vitro Enzyme Assay, cyclin B/CDK1, read-out: CDK1 IC50
# T2 construct: purchased New England BioLabs; host or cells: Sf9 insect cells, recombinant baculovirus
# T2 sequence (P06493 whole entry): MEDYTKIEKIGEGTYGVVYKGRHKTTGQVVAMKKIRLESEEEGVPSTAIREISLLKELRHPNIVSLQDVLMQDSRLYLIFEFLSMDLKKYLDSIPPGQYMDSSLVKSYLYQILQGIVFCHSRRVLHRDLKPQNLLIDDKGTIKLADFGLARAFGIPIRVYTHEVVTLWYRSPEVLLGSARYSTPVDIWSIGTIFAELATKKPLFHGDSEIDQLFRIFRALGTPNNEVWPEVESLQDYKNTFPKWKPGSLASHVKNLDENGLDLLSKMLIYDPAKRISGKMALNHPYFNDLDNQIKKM
# T2 sequence (P14635 whole entry partner): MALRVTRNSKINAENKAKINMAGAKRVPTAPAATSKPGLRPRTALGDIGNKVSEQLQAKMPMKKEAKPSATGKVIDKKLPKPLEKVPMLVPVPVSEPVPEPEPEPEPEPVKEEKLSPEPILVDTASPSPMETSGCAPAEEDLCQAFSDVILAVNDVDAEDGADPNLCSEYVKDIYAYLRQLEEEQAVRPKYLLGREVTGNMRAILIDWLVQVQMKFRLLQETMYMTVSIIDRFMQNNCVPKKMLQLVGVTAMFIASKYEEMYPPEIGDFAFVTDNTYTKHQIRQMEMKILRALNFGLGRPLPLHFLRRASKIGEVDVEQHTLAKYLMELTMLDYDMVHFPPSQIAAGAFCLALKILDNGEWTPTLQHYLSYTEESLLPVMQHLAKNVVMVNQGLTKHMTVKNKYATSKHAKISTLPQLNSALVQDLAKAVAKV
# Outline: as §1
# [3] = biological target: T3, cyclin E/CDK2 enzyme (Homo sapiens, UniProt P24941); test: CDK2 ELISA kinase assay (phospho-Rb ser 795 detection); type: biochemical; details: In Vitro Enzyme Assay, cyclin E/CDK2, read-out: CDK2 IC50
# T3 construct: made in house; host or cells: Sf9 insect cells, recombinant baculovirus
# Outline: as §1
# [4] = system: HCT-116; test: Cytotoxicity assay (SRB), HCT-116; type: cell-based; details: Homo sapiens, HCT-116, 72 h, HCT116 cells, 3 days, SRB; read-out: In Vitro Cellular Activity IC50 HCT116
# Outline: (§2)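 Protein staining with sulforhodamine B after cold TCA fixation served as the survival endpoint (A540, relative to untreated cells). Before staining, cells were incubated with compound at 37 °C, 7% CO2 for 3 days, or 6 days for BT474.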
# [5] = system: BT474; test: Cytotoxicity assay (SRB), BT474; type: cell-based; details: Homo sapiens, BT-474, 144 h, BT474 cells, 6 days, SRB; read-out: In Vitro Cellular Activity IC50 BT474
# Outline: as §2
# [6] = system: LoVo; test: Cytotoxicity assay (SRB), LoVo; type: cell-based; details: Homo sapiens, LoVo, 72 h, LoVo cells, 3 days, SRB; read-out: In Vitro Cellular Activity IC50 LOVO
# Outline: as §2
# [7] = system: MCF-7; test: Cytotoxicity assay (SRB), MCF-7; type: cell-based; details: Homo sapiens, MCF7, 72 h, MCF-7 cells, 3 days, SRB; read-out: In Vitro Cellular Activity IC50 MCF-7
# Outline: as §2
# T1 sequence (P11802 whole entry, species assumed): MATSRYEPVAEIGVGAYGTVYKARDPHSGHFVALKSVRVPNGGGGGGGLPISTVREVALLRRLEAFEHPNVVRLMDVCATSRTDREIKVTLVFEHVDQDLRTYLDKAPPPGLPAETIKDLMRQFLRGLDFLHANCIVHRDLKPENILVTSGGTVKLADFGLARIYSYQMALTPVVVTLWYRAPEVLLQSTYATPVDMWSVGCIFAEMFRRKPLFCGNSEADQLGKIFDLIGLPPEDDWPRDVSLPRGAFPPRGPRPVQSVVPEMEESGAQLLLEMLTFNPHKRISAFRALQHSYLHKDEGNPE
# T1 sequence (P24385 whole entry partner, species assumed): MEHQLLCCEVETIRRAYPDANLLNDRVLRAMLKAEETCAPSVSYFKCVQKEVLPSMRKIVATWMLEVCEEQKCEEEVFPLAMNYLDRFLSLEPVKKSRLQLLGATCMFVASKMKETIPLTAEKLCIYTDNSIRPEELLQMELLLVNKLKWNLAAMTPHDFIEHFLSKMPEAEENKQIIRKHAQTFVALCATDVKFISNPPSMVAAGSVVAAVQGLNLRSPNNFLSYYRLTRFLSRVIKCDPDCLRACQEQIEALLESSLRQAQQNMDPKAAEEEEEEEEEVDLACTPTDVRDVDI
compound,measurement,setting,value
"COc1ccc(CNC=C2C(=O)NC(=O)c3ccc(C=Cc4ccccn4)cc32)cc1O [Example 735, 4-[(3-Hydroxy-4-methoxy-benzylamino)-methylene]-6-(2-pyridin-2-yl-vinyl)-4H-isoquinoline-1,3-dione]",IC50,[1],0.14 µM
same,IC50,[2],> 50 µM
same,IC50,[3],> 50 µM
same,IC50,[4],18.2 µM
same,IC50,[5],20.1 µM
same,IC50,[6],11.4 µM
same,IC50,[7],21.9 µM
"CN(C)Cc1ccc(C=Cc2ccc3c(c2)C(=CNCc2ccc(O)c(O)c2)C(=O)NC3=O)cc1 [Example 736, 4-[(3,4-Dihydroxy-benzylamino)-methylene]-6-[2-(4-dimethylaminomethyl-phenyl)-vinyl]-4H-isoquinoline-1,3-dione]",IC50,[1],0.84 µM
same,IC50,[2],> 50 µM
same,IC50,[3],21.1 µM
same,IC50,[4],20.5 µM
same,IC50,[5],39.9 µM
same,IC50,[6],11.5 µM
same,IC50,[7],> 50 µM
"NS(=O)(=O)c1ccc(CNC=C2C(=O)NC(=O)c3ccc(-c4ccc(F)cc4)cc32)cc1 [Example 738, 4-({[6-(4-Fluoro-phenyl)-1,3-dioxo-2,3-dihydro-1H-isoquinolin-4-ylidenemethyl]-amino}-methyl)-benzenesulfonamide]",IC50,[1],0.45 µM
same,IC50,[2],32.4 µM
same,IC50,[3],32.4 µM
same,IC50,[4],18.8 µM
same,IC50,[5],47.1 µM
same,IC50,[6],39.1 µM
same,IC50,[7],15.8 µM
"NS(=O)(=O)c1ccc(CNC=C2C(=O)NC(=O)c3ccc(-c4cccc(F)c4)cc32)cc1 [Example 739, 4-({[6-(3-Fluoro-phenyl)-1,3-dioxo-2,3-dihydro-1H-isoquinolin-4-ylidenemethyl]-amino}-methyl)-benzenesulfonamide]",IC50,[1],1.77 µM
same,IC50,[2],30.3 µM
same,IC50,[3],> 50 µM
same,IC50,[4],26.4 µM
same,IC50,[5],32.8 µM
same,IC50,[6],> 50 µM
same,IC50,[7],17.1 µM
"NS(=O)(=O)c1ccc(CNC=C2C(=O)NC(=O)c3ccc(-c4ccccc4F)cc32)cc1 [Example 740, 4-({[6-(2-Fluoro-phenyl)-1,3-dioxo-2,3-dihydro-1H-isoquinolin-4-ylidenemethyl]-amino}-methyl)-benzenesulfonamide]",IC50,[1],1.81 µM
same,IC50,[2],13.5 µM
same,IC50,[3],3.7 µM
same,IC50,[4],7.7 µM
same,IC50,[5],9.7 µM
same,IC50,[6],10 µM
same,IC50,[7],8.3 µM
"NS(=O)(=O)c1ccc(CNC=C2C(=O)NC(=O)c3ccc(-c4ccc(Cl)cc4)cc32)cc1 [Example 749, 4-({[6-(4-Chloro-phenyl)-1,3-dioxo-2,3-dihydro-1H-isoquinolin-4-ylidenemethyl]-amino}-methyl)-benzenesulfonamide]",IC50,[1],1.48 µM
same,IC50,[2],38.8 µM
same,IC50,[3],8 µM
same,IC50,[4],20.9 µM
same,IC50,[5],> 50 µM
same,IC50,[6],47.2 µM
same,IC50,[7],14.1 µM
"COc1ccc(-c2ccc3c(c2)C(=CNCc2ccc(O)c(O)c2)C(=O)NC3=O)cc1 [Example 764, 4-[(3,4-Dihydroxy-benzylamino)-methylene]-6-(4-methoxy-phenyl)-4H-isoquinoline-1,3-dione]",IC50,[1],0.06 µM
same,IC50,[2],16.5 µM
same,IC50,[3],7.3 µM
same,IC50,[4],9.3 µM
same,IC50,[5],23.1 µM
same,IC50,[6],8.6 µM
same,IC50,[7],10.3 µM
"COc1cccc(-c2ccc3c(c2)C(=CNCc2ccc(O)c(O)c2)C(=O)NC3=O)c1 [Example 765, 4-[(3,4-Dihydroxy-benzylamino)-methylene]-6-(3-methoxy-phenyl)-4H-isoquinoline-1,3-dione]",IC50,[1],0.27 µM
same,IC50,[2],21.1 µM
same,IC50,[3],11.5 µM
same,IC50,[4],15.8 µM
same,IC50,[5],33.4 µM
same,IC50,[6],18.3 µM
same,IC50,[7],14.4 µM
"COc1ccccc1-c1ccc2c(c1)C(=CNCc1ccc(O)c(O)c1)C(=O)NC2=O [Example 766, 4-[(3,4-Dihydroxy-benzylamino)-methylene]-6-(2-methoxy-phenyl)-4H-isoquinoline-1,3-dione]",IC50,[1],1.29 µM
same,IC50,[2],43.4 µM
same,IC50,[3],14.4 µM
same,IC50,[4],21.6 µM
same,IC50,[5],33.9 µM
same,IC50,[6],32.3 µM
same,IC50,[7],22.1 µM
"O=C1NC(=O)c2ccc(-c3ccc(F)cc3)cc2C1=CNCc1ccc(O)c(O)c1 [Example 767, 4-[(3,4-Dihydroxy-benzylamino)-methylene]-6-(4-fluoro-phenyl)-4H-isoquinoline-1,3-dione]",IC50,[1],0.17 µM
same,IC50,[2],15.4 µM
same,IC50,[3],9 µM
same,IC50,[4],25.9 µM
same,IC50,[5],44 µM
same,IC50,[6],21.4 µM
same,IC50,[7],25.2 µM
